Data: PubChem BioAssay (NCI)
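Growth conditions: 96-well plates. Treatment: test compound, 48 hours, 5 concentrations. Analysis: linear interpolation between bracketing concentrations; unreached endpoints set to highest concentration. GI50: concentration for 50% inhibition of growth. TGI: concentration producing complete growth inhibition.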

What was measured:
Test in all cases: DTP human tumour cell line panel, 48 h
CCRF-CEM leukemia = test system: CCRF-CEM leukemia
ACHN renal = test system: ACHN renal
A498 renal = test system: A498 renal
RPMI-8226 leukemia = test system: RPMI-8226 leukemia
SK-OV-3 ovarian = test system: SK-OV-3 ovarian
UO-31 renal = test system: UO-31 renal
MDA-MB-435 = test system: MDA-MB-435
T-47D breast = test system: T-47D breast
NCI/ADR-RES ovarian = test system: NCI/ADR-RES ovarian
DU-145 prostate = test system: DU-145 prostate
OVCAR-3 ovarian = test system: OVCAR-3 ovarian
M14 melanoma = test system: M14 melanoma
NCI-H522 lung = test system: NCI-H522 lung
SF-539 CNS = test system: SF-539 CNS
MALME-3M melanoma = test system: MALME-3M melanoma
TK-10 renal = test system: TK-10 renal
SF-295 CNS = test system: SF-295 CNS
HT29 colon = test system: HT29 colon
NCI-H23 lung = test system: NCI-H23 lung
HOP-92 NSCLC = test system: HOP-92 NSCLC
SK-MEL-2 melanoma = test system: SK-MEL-2 melanoma
SF-268 CNS = test system: SF-268 CNS
MDA-MB-231 breast = test system: MDA-MB-231 breast
SNB-19 CNS = test system: SNB-19 CNS
KM12 colon = test system: KM12 colon
MCF7 breast = test system: MCF7 breast
A549 NSCLC = test system: A549 NSCLC
EKVX NSCLC = test system: EKVX NSCLC
OVCAR-4 ovarian = test system: OVCAR-4 ovarian

For `O=C(CCCCCCNC(=O)C(O)(O)C(F)(F)F)Nc1nc2ccccc2s1`, the TGI (CCRF-CEM leukemia) was over 29.8 µM, the GI50 (ACHN renal) was 3.59 µM and the TGI (ACHN renal) was 17.3 µM. It also gave a GI50 (A498 renal) of 1.51 µM, a TGI (A498 renal) of 12.5 µM and a GI50 (RPMI-8226 leukemia) of 2.73 µM. The TGI (RPMI-8226 leukemia) was over 29.8 µM, the GI50 (SK-OV-3 ovarian) was 2.27 µM and the TGI (SK-OV-3 ovarian) was 12.6 µM. For the same compound, the GI50 (UO-31 renal) was 2.01 µM, the TGI (UO-31 renal) was 15.9 µM and the GI50 (MDA-MB-435) was 4.36 µM. The TGI (MDA-MB-435) was 23.5 µM, the GI50 (T-47D breast) was 2.24 µM and the TGI (T-47D breast) was 22.8 µM. It also gave a GI50 (NCI/ADR-RES ovarian) of 3.4 µM, a TGI (NCI/ADR-RES ovarian) of 16.7 µM and a GI50 (DU-145 prostate) of 4.99 µM. The TGI (DU-145 prostate) was over 29.8 µM, the GI50 (OVCAR-3 ovarian) was 3.17 µM and the TGI (OVCAR-3 ovarian) was 8.39 µM. It also gave a GI50 (M14 melanoma) of 6.4 µM, a TGI (M14 melanoma) of over 29.8 µM and a GI50 (NCI-H522 lung) of 2.76 µM. The TGI (NCI-H522 lung) was 14.7 µM, the GI50 (SF-539 CNS) was 6.56 µM and the TGI (SF-539 CNS) was over 29.8 µM. For the same compound, the GI50 (MALME-3M melanoma) was 1.49 µM, the TGI (MALME-3M melanoma) was 13 µM and the GI50 (TK-10 renal) was 1.17 µM. It also gave a TGI (TK-10 renal) of over 29.8 µM, a GI50 (SF-295 CNS) of 3.43 µM and a TGI (SF-295 CNS) of 8.88 µM. For the same compound, the GI50 (HT29 colon) was 3.75 µM, the TGI (HT29 colon) was over 29.8 µM and the GI50 (NCI-H23 lung) was 4.94 µM. For the same compound, the TGI (NCI-H23 lung) was 25.9 µM, the GI50 (HOP-92 NSCLC) was 0.751 µM and the TGI (HOP-92 NSCLC) was 8.28 µM. The GI50 (SK-MEL-2 melanoma) was 4.43 µM, the TGI (SK-MEL-2 melanoma) was 21 µM and the GI50 (SF-268 CNS) was 7.69 µM. It also gave a TGI (SF-268 CNS) of over 29.8 µM, a GI50 (MDA-MB-231 breast) of 3.59 µM and a TGI (MDA-MB-231 breast) of 22.1 µM. For the same compound, the GI50 (SNB-19 CNS) was 6.49 µM, the TGI (SNB-19 CNS) was over 29.8 µM and the GI50 (KM12 colon) was 5.84 µM. It also gave a TGI (KM12 colon) of over 29.8 µM, a GI50 (MCF7 breast) of 6.59 µM and a TGI (MCF7 breast) of over 29.8 µM. For the same compound, the GI50 (A549 NSCLC) was 7.99 µM, the TGI (A549 NSCLC) was over 29.8 µM and the GI50 (EKVX NSCLC) was 6.39 µM. The TGI (EKVX NSCLC) was over 29.8 µM, the GI50 (OVCAR-4 ovarian) was 11 µM and the TGI (OVCAR-4 ovarian) was over 29.8 µM.
